The source of these data is ChEMBL document CHEMBL1268981, “2-Methyl-3-furanyl-4H-1,2,4-triazol-3-ylthioamides: a new class of selective orexin 2 antagonists” (Bioorg Med Chem Lett, 2010).

In assay [1] the target is T1, Orexin/Hypocretin receptor type 1 (Homo sapiens, UniProt O43613).
T1 sequence (O43613 whole entry): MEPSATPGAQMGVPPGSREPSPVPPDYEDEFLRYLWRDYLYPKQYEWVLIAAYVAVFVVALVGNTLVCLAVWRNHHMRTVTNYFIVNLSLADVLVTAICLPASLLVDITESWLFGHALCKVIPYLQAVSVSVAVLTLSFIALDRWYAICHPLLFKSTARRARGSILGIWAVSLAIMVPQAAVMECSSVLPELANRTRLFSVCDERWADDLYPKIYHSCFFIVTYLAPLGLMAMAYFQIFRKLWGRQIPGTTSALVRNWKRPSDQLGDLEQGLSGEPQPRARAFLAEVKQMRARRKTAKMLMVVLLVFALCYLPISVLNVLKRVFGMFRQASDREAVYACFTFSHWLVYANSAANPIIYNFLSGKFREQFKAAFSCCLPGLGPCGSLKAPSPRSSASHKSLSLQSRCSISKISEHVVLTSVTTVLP
Kind of assay: Antagonist activity against human orexin 1 receptor expressed in CHO cells assessed as effect in calcium mobilization by FLIPR assay. It counts as functional, cell-based. A general note: A change in cytosolic calcium serves as a functional read-out for many receptors and channels.

The target in a further assay is T2, Orexin receptor type 2 (Homo sapiens, UniProt O43614).
T2 sequence (O43614 whole entry): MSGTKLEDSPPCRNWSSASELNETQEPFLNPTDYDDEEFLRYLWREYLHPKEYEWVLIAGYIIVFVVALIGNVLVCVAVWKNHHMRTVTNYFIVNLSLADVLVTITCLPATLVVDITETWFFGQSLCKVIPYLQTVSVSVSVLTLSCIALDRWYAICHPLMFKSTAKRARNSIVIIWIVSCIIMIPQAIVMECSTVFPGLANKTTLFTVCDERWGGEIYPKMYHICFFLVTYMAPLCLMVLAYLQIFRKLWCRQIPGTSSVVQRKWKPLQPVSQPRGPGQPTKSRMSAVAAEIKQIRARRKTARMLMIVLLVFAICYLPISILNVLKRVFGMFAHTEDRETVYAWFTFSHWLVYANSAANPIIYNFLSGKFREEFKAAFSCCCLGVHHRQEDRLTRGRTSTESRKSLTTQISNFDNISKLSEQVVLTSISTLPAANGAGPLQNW
The assay can be described thus: Antagonist activity against human orexin 2 receptor expressed in CHO cells assessed as effect in calcium mobilization by FLIPR assay. It counts as functional, cell-based.

The target in assay [2] is T3, Orexin/Hypocretin receptor type 1 (Rattus norvegicus) (UniProt P56718).
T3 sequence (whole entry): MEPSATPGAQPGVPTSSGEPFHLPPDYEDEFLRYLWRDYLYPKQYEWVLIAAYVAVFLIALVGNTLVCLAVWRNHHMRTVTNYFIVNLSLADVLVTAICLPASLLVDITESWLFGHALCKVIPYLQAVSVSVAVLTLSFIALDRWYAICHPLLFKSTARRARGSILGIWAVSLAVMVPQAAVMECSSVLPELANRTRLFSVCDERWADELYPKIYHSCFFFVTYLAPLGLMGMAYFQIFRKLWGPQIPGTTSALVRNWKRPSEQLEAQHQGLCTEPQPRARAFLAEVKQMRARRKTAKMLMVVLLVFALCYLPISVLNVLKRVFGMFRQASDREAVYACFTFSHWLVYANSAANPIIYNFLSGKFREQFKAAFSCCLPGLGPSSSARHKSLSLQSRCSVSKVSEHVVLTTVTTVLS
The assay can be described thus: Antagonist activity against rat orexin 1 receptor expressed in RBL cells by [3H]inositol phosphate accumulation assay. The format is functional, cell-based.

A further assay concerns the target Cytochrome P450 2C9 (Homo sapiens, UniProt P11712). The assay can be described thus: Inhibition of CYP2C9 by CYPEX bactosome P450 inhibition assay. The format is ADME.
In assay [3] the target is T4, Orexin receptor type 2 (Rattus norvegicus) (UniProt P56719).
T4 sequence (whole entry): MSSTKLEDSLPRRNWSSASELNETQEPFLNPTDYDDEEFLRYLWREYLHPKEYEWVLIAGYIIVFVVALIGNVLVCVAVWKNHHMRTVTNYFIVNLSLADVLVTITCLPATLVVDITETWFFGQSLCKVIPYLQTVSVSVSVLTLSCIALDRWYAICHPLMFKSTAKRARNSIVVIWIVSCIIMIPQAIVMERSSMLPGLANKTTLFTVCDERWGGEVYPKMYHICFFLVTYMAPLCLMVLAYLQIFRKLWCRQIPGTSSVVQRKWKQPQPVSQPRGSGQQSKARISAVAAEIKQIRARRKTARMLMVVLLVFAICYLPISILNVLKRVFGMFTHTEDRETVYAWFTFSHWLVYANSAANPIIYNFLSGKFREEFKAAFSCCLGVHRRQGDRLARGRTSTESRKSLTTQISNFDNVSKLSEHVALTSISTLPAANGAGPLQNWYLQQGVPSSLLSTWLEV
The assay can be described thus: Antagonist activity against rat orexin 2 receptor expressed in RBL cells by [3H]inositol phosphate accumulation assay. The format is functional, cell-based.

The target of assay [4] is T5, Cytochrome P450 3A4 (Homo sapiens, UniProt P08684). The assay can be described thus: Inhibition of CYP3A4 using DEF substrate by CYPEX bactosome P450 inhibition assay. It counts as ADME.
T5 sequence (P08684 whole entry): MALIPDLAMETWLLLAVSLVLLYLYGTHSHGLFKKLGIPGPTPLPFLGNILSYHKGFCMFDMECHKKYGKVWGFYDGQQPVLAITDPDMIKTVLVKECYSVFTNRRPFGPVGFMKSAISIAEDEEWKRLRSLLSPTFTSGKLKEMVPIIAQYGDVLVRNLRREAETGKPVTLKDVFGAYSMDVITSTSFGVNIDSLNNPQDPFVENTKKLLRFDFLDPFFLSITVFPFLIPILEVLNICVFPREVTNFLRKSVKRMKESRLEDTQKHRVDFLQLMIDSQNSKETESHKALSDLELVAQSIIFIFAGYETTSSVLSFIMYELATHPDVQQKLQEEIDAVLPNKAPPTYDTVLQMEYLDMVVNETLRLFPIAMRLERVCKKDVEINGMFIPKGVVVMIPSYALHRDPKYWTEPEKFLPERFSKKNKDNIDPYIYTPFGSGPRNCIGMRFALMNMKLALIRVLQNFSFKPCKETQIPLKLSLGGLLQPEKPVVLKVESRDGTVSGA
A further assay has as its target Cytochrome P450 2C19 (Homo sapiens, UniProt P33261). Kind of assay: Inhibition of CYP2C19 by CYPEX bactosome P450 inhibition assay. It counts as ADME.
The target of a further assay is Cytochrome P450 2D6 (Homo sapiens, UniProt P10635). Kind of assay: Inhibition of CYP2D6 by CYPEX bactosome P450 inhibition assay. The format is ADME.
Cytochrome P450 2D6, sequence (P10635 whole entry): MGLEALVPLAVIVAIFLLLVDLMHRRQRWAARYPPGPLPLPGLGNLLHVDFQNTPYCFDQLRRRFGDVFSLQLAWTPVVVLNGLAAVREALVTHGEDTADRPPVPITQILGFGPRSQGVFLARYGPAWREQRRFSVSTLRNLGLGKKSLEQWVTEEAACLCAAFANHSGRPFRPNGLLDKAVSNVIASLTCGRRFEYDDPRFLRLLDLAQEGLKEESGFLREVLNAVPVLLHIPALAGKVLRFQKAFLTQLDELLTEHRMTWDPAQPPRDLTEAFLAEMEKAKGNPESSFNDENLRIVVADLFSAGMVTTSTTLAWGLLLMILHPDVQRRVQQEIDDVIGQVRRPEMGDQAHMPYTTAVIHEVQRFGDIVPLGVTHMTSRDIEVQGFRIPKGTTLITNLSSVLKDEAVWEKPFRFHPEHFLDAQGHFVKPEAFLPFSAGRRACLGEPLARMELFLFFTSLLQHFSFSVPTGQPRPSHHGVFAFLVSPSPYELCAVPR
A further assay addresses T6, Cytochrome P450 1A2 (Homo sapiens, UniProt P05177).
T6 sequence (P05177 whole entry): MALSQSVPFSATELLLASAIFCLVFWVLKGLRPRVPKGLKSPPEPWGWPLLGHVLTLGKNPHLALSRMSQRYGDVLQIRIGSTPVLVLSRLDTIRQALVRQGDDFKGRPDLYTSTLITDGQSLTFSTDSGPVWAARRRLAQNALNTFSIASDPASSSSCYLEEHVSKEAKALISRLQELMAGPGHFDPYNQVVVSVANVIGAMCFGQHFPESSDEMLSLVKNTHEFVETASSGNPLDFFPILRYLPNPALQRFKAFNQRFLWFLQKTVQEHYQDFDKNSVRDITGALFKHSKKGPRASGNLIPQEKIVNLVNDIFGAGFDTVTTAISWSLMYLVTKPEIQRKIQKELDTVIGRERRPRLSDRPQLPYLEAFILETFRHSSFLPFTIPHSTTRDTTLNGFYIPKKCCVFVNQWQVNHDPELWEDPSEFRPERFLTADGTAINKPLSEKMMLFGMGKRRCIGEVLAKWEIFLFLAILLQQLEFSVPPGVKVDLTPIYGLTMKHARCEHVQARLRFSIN
Kind of assay: Inhibition of CYP1A2 by CYPEX bactosome P450 inhibition assay. It counts as ADME.

Assay [5] addresses T5, Cytochrome P450 3A4. Kind of assay: Inhibition of CYP3A4 by CYPEX bactosome P450 inhibition assay. It counts as ADME.

Activity calls are given as the source filed them. No cut-off for these calls is given here.

As a reminder, the Ki is a measure of affinity in units of concentration, obtained from inhibition or displacement. As a reminder, the IC50 is the midpoint of a concentration-inhibition curve. Low values mean greater potency in that assay, high ones weaker potency in that assay.

Cytochrome P450 2C19, sequence (P33261 whole entry): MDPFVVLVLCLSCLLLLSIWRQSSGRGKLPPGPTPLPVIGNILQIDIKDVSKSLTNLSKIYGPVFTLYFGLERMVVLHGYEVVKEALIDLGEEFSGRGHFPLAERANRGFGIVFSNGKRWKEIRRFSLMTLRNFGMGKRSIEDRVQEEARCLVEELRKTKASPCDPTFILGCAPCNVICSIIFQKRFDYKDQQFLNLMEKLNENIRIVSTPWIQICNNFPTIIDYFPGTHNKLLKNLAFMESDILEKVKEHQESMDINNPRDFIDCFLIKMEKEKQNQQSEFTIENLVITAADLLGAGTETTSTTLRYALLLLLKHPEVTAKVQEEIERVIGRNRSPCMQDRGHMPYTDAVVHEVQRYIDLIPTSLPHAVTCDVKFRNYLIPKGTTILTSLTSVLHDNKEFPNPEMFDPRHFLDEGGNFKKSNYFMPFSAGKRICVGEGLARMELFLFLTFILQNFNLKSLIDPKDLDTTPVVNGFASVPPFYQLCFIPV
Cytochrome P450 2C9, sequence (P11712 whole entry): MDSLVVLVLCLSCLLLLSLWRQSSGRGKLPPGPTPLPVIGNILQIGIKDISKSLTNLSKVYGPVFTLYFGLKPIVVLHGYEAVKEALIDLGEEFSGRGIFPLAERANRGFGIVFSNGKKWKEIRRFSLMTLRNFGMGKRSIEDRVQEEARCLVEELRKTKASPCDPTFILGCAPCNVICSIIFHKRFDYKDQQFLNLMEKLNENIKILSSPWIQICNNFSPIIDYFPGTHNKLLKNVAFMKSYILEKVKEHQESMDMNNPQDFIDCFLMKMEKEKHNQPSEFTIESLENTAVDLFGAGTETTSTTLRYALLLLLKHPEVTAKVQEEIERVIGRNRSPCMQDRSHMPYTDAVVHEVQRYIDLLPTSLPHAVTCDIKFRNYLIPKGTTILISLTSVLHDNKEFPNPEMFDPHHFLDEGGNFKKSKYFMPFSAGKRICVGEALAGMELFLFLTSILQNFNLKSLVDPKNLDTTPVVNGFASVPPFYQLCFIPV

Regarding `CCC(C)NC(=O)CSc1nnc(-c2ccoc2C)n1Cc1ccco1` (stereo not given), the Ki (in [1]; on Orexin receptor type 2) was over 15800 nM in each case.
For the compound `Cc1cc(C)cc(N(C(=O)CSc2nnc(-c3ccoc3C)n2Cc2ccco2)C2CNCCN2)c1` (stereo not given), the inhibition constant Ki in assay [1] is over 15800 nM; at Orexin receptor type 2, 631 nM.
Taken in the same sequence, the figures for `Cc1cccc(NC(=O)CSc2nnc(-c3ccoc3C)n2Cc2ccco2)c1C` were over 15800 nM and over 15800 nM.
Regarding `Cc1occc1-c1nnc(SCC(=O)Nc2ccccc2F)n1Cc1ccco1`, the Ki in [1] is over 15800 nM; at Orexin receptor type 2, 2000 nM.
Taken in the same sequence, the figures for `Cc1occc1-c1nnc(SCC(=O)Nc2ccc(F)cc2)n1Cc1ccco1` were over 15800 nM and 158 nM.
Taken in the same sequence, the figures for `Cc1nnc(NC(=O)CSc2nnc(-c3ccoc3C)n2Cc2ccco2)s1` were over 15800 nM and 398 nM.
For the compound `Cc1ccc(NC(=O)CSc2nnc(-c3ccoc3C)n2Cc2ccco2)cc1C`, the Ki was 631 nM in assay [1] and 2.51 nM at Orexin receptor type 2.
Taken in the same sequence, the figures for `Cc1occc1-c1nnc(SCC(=O)Nc2cccc(F)c2)n1Cc1ccco1` were over 15800 nM and 501 nM.
Take `Cc1ccc(C)c(NC(=O)CSc2nnc(-c3ccoc3C)n2Cc2ccco2)c1`: the Ki in assay [1] was over 15800 nM.
With `Cc1occc1-c1nnc(SCC(=O)NCCc2ccccc2)n1Cc1ccco1`, the Ki in [1] was over 15800 nM; on Orexin receptor type 2, 1580 nM.
Taken in the same sequence, the figures for `Cc1occc1-c1nnc(SCC(=O)Nc2ccc(N(C)C)cc2)n1Cc1ccco1` were 794 nM and 158 nM.
Taken in the same sequence, the figures for `Cc1ccccc1NC(=O)CSc1nnc(-c2ccoc2C)n1Cc1ccco1` were over 15800 nM and over 15800 nM.
On the same counts, the results for `Cc1ccc(NC(=O)CSc2nnc(-c3ccoc3C)n2Cc2ccco2)c(C)c1` are 1260 nM and 501 nM.
As for `Cc1ccc(NC(=O)CSc2nnc(-c3ccoc3C)n2Cc2ccco2)cc1`, the Ki in assay [1] is over 15800 nM; at Orexin receptor type 2, 39.8 nM.
Taken in the same sequence, the figures for `Cc1nc(C(=O)N2CCCC[C@H]2CNC(=O)c2cccc3occc23)c(-c2ccc(F)cc2)s1` [SB-649868] were 0.316 nM and 0.398 nM.
On the same counts, the results for `COc1ccc(C)cc1NC(=O)CSc1nnc(-c2ccoc2C)n1Cc1ccco1` are 2510 nM and 15.8 nM.
Taken in the same sequence, the figures for `Cc1occc1-c1nnc(SCC(=O)Nc2nccs2)n1Cc1ccco1` were over 15800 nM and 1000 nM.
With `COc1ccc(NC(=O)CSc2nnc(-c3ccoc3C)n2Cc2ccco2)cc1`, the values for the Ki (in [1]; at Orexin receptor type 2) were over 15800 nM and 200 nM, respectively.
On the same counts, the results for `Cc1cccc(C)c1NC(=O)CSc1nnc(-c2ccoc2C)n1Cc1ccco1` are over 15800 nM and over 15800 nM.
On the same counts, the results for `Cc1occc1-c1nnc(SCC(=O)Nc2cccc(-c3ccc4c(c3)OCO4)c2)n1Cc1ccco1` are over 15800 nM and 251 nM.
`Cc1occc1-c1nnc(SCC(=O)Nc2ccc(Cl)cc2)n1Cc1ccco1`: the results for the Ki (in assay [1]; at Orexin receptor type 2) were 2000 nM and 100 nM, respectively.
Taken in the same sequence, the figures for `Cc1cccc(NC(=O)CSc2nnc(-c3ccoc3C)n2Cc2ccco2)c1` were 2510 nM and 50.1 nM.
Taken in the same sequence, the figures for `Cc1occc1-c1nnc(SCC(=O)NN2CCc3ccccc32)n1Cc1ccco1` were over 15800 nM and 1000 nM.
Taken in the same sequence, the figures for `Cc1occc1-c1nnc(SCC(=O)Nc2ccc(F)c(Cl)c2)n1Cc1ccco1` were 1000 nM and 39.8 nM.
Regarding `Cc1occc1-c1nnc(SCC(=O)Nc2cccc(Cl)c2)n1Cc1ccco1`, the Ki is 2000 nM in assay [1] and 63.1 nM at Orexin receptor type 2.
Turning to `Cc1cc(C)cc(NC(=O)CSc2nnc(-c3ccoc3C)n2Cc2ccco2)c1`, the inhibition result in [2] and in [3] was “Active” throughout. Also, the Ki is 794 nM in assay [1] and 1.58 nM at Orexin receptor type 2. Further, the concentration for half-maximal inhibition (IC50) against Cytochrome P450 2C9 is over 5000 nM; at Cytochrome P450 3A4 [4], 2000 nM; on Cytochrome P450 2C19 it was over 5000 nM; against Cytochrome P450 2D6 it was over 5000 nM; against Cytochrome P450 1A2, over 5000 nM; against Cytochrome P450 3A4 [5] it was over 5000 nM.
Turning to `Cc1occc1-c1nnc(SCC(=O)Nc2ccccc2)n1Cc1ccco1`, the Ki was over 15800 nM in assay [1] and 1000 nM at Orexin receptor type 2.
On the same counts, the results for `Cc1cc(C)cc(N(C(=O)CSc2nnc(-c3ccoc3C)n2Cc2ccco2)c2cccnc2)c1` are over 15800 nM and 2000 nM.
`CC(=O)c1ccc(NC(=O)CSc2nnc(-c3ccoc3C)n2Cc2ccco2)cc1`: the Ki in assay [1] was 2510 nM; at Orexin receptor type 2, 31.6 nM.
Taken in the same sequence, the figures for `Cc1csc(NC(=O)CSc2nnc(-c3ccoc3C)n2Cc2ccco2)n1` were over 15800 nM and 100 nM.
Taken in the same sequence, the figures for `CC(=O)c1cccc(NC(=O)CSc2nnc(-c3ccoc3C)n2Cc2ccco2)c1` were 3160 nM and 316 nM.
On to `Cc1cc(C)cc(N(C(=O)CSc2nnc(-c3ccoc3C)n2Cc2ccco2)c2ccccn2)c1`, for which the Ki in assay [1] was over 15800 nM; on Orexin receptor type 2, 398 nM.
For `COc1ccccc1NC(=O)CSc1nnc(-c2ccoc2C)n1Cc1ccco1`, the Ki in assay [1] was over 15800 nM; at Orexin receptor type 2, 501 nM.
On the same counts, the results for `Cc1occc1-c1nnc(SCC(N)=O)n1Cc1ccco1` are over 15800 nM and over 15800 nM.
